Reference: paper PMC12040169 (PLOS Biology, 2025)

assay: in vitro; conditions: human, hela cells, % viability

Compound	viability at 28.5 h, 10 µM [%]
O=c1[nH]c2ncc(-c3cccc(Br)c3)nc2n1Cc1ccccn1 [CBK065020]	101
Cc1cc(C(=O)Nc2cc(F)c(N3CCCC3)c(F)c2)c(C)n1C1CC1 [CBK306226]	102
Cc1ccc(Cn2cnc3c(nnn3-c3ccc(C)cc3)c2=O)cc1 [CBK287502]	102
O=C(O)[C@H]1CN(C(=O)c2ccco2)C[C@@H]1c1ccccc1F [CBK283820]	80.6
CC(C)Nc1nccnc1Sc1cccc(C(=O)O)c1 [CBK093581]	96.6
COc1ccccc1NC(=O)Cn1c(=O)oc2cc(Cl)ccc21 [CBK269344]	94.6
Cc1cc2ccccc2n2c(SCCC(=O)Nc3ccc(C(C)(C)C)cc3)nnc12 [CBK265639]	106
CC1(C)Cc2nc(N3CCOCC3)ncc2C(NC(=O)c2cccs2)C1 (stereo not shown) [CBK307369]	92.7
CCOC(=O)c1ccc(NCc2c(O)ccc3oc4c(c23)CCCC4)cc1 [CBK160394]	97.7
Cc1c(Br)c([N+](=O)[O-])nn1C(C)C(=O)NCc1ccco1 (stereo not shown) [CBK269108]	92.2
N#CC1(NC(=O)CN2CCOC(Cn3cccn3)C2)CCCCC1 (stereo not shown) [CBK305268]	87.2
CCNc1nc(-c2ccc(SCC)cc2)cn2ccnc12 [CBK066489]	114
CC1CC(C)CN(CCCNC(=O)c2cc(-c3cccs3)no2)C1 (stereo not shown) [CBK281949]	93
O=C(COc1ccc(F)cc1)Nc1ccc2[nH]ccc2c1 [CBK159689]	98.6
CC(=O)N1CCc2cc(C(=O)CN3CCOCC3)ccc21 [CBK291105]	89.2
CCCc1cc(O)n(-c2nc3ccccc3[nH]2)n1 [CBK270269]	82.7
Cc1cc(=O)[nH]c(SCc2cc(=O)c3ccccc3[nH]2)n1 [CBK294410]	86.3
Cc1cc(COc2nccnc2OC2CCN(CCN3CCOCC3)CC2)no1 [CBK082961T]	103
C/C(CS(=O)(=O)c1ccccc1)=N/NC(N)=S [CBK026285]	111
COCC1CCCN1C(=O)c1cnn2c(C)c(Cc3ccc(OC)cc3)c(C)nc12 (stereo not shown) [CBK162190]	107
Cc1nonc1CC(=O)N[C@H]1C2CCCCC2[C@@H]1c1ccccc1 (stereo partly shown) [CBK285126]	102
O=C(Cn1c(-c2cncs2)nc2ccccc21)NCc1ccccc1 [CBK264705]	103

Compound	viability at 28.5 h, 10 µM [%]
O=C(Cc1cccnc1)N1CCC(O)(c2cccc(F)c2)CC1 [CBK283537]	95.9
O=C(NC1CCN(c2ncccn2)CC1)c1ccc[nH]c1=S [CBK241695]	83.9
COc1ccc(CN(CCN(C)C)C(=O)NCc2ccc(Cl)cc2)cc1OC [CBK159303]	87.7
O=C(O)c1cccc(N2C(=O)c3cccc4c(Cl)ccc(c34)C2=O)c1 [CBK299836]	90.3
COCc1cn(C2CCN(c3cc(-n4cc(C)cn4)ncn3)CC2)nn1 [CBK307388]	92.9
COc1ccc(Cl)cc1-n1c(-c2ccc3ccccc3n2)n[nH]c1=S [CBK288382]	95.4
O=S(=O)([O-])c1cc(S(=O)(=O)O)ccc1Nc1cc2c(nc3ccccc3[n+]2-c2ccccc2)c2ccccc12 [CBK260997N]	102
Cc1nn(C)c(C)c1NC(=O)CN1CCN(c2ccccc2Cl)CC1 [CBK306058]	82.6
CN(CC(=O)Nc1ccccc1C(N)=O)S(=O)(=O)c1ccc(Br)cc1 [CBK268648]	98.7
CCOC(=O)CN1CCN(C(=O)Nc2ccccc2Br)CC1 [CBK044156]	103
CC1CCCN(CCCNS(=O)(=O)c2ccc(N3CCCC3=O)cc2)C1 (stereo not shown) [CBK304213]	90
O=C(c1ccc(F)cc1)C1CCN(Cc2ccc(Cl)c(Cl)c2)CC1 [CBK149114]	98.5
CC1CCCN(C(=O)C2C3CCC4(CC(=O)c5ccccc5O4)C32)C1 (stereo not shown) [CBK284932]	89.8
CC(=O)Nc1ccc(CNC(=O)c2cccnc2O)cc1 [CBK304559]	107
CC(C)CC(NC(=O)c1ccco1)c1nc2cccnc2n1C (stereo not shown) [CBK283827]	88.8
NNC(=O)CSc1nnc(-c2ccccc2)n1-c1ccccc1 [CBK223486]	92.5
c1ccc(CCNc2nc(-c3cccs3)cn3ccnc23)nc1 [CBK066633]	101
CCC(C)(C)c1ccc(S(=O)(=O)Nc2n[nH]cc2Br)cc1 [CBK043734]	85
O=S(=O)(c1ccccc1)c1ccc(N2CCNCC2)cc1 [CBK018452]	97.8
CCn1c(COc2cccc(C)c2)nnc1SCC(=O)c1ccccc1 [CBK267143]	97.4
Cc1ccc(CN(C2CCN(C)CC2)S(=O)(=O)c2ccc(F)cc2F)cc1 [CBK160448T]	97.5
Cc1c(C(=O)NCCCCn2ccnc2)[nH]c2ccccc12 [CBK283246]	94.3

Compound	viability at 28.5 h, 10 µM [%]
O=C(O)CCC(=O)Nc1ccc2c(c1)oc1ccccc12 [CBK261597]	86.3
O=C(NCC1COc2ccccc2O1)N1CCN(c2ccc(F)cc2)CC1 (stereo not shown) [CBK156387]	92.8
O=C1CN(C(=O)Nc2ccc(Cl)cc2)CCN1 [CBK155861]	81.3
O=C(O)c1ccc2c(c1)C(=O)N(c1ccc(-c3ccnc(-c4ccc(N5C(=O)c6ccc(C(=O)O)cc6C5=O)cc4)n3)cc1)C2=O [CBK261192]	104
CC(C(=O)NC1(C#N)CCCCC1)N1CCOC(CN(C)C)C1 (stereo not shown) [CBK305155]	88.6
CN1CCN([C@H]2[C@@H]3OC[C@@H](O3)[C@@H](NCc3ccc(CO)o3)[C@@H]2O)CC1 [CBK288823]	91.5
Clc1ccc(Cn2ncc3c(NCCN4CCOCC4)ncnc32)cc1 [CBK266230]	105
OCC[C@H]1CN2CCCC2CN1Cc1cccn1-c1cccc(F)c1 (stereo partly shown) [CBK282985]	86.1
CCNC(=O)Nc1ncc(-c2ccc(OC(F)(F)F)cc2)c2cccnc12 [CBK070690]	94
CC1(C)CN(c2ccc(Cl)cn2)C1=O [CBK018550]	93.6
Cc1ncsc1C(=O)N1CCC(c2cccc(Cc3ccc(C(F)(F)F)cc3)n2)CC1 [CBK286216]	99.5
O=S(=O)(Nc1nccnc1-c1cccs1)C1CC1 [CBK050764]	93.9
CC(=O)N1CC[C@H]2NC(=O)CNC(=O)C3(CCCC[C@H]2C1)CCN(C(=O)CCn1ccnc1)CC3 [CBK292138]	111
Cc1noc(C)c1NC(=O)c1cccn1C [CBK200304]	101
Clc1ccccc1-c1nccnc1OC(c1ccccc1)c1ccccc1 [CBK107002]	92.9
CCCCN(Cc1ccc(C)s1)C(=O)C1CCc2nn(C)c(=O)n2C1 (stereo not shown) [CBK307360]	94.6
Cc1c(S(=O)(=O)NC(C)CCCC(C)(C)O)sc2ccc(Cl)cc12 (stereo not shown) [CBK062467]	93.5
COCC(=O)N1CCc2sccc2C1c1ccc(NCc2ccc(C)o2)cc1 (stereo not shown) [CBK286447]	96.3
O=[N+]([O-])c1cccc(S(=O)(=O)NCCOc2cccc3cccnc23)c1 [CBK268489]	98.6
O=C(O)CCC(C(=O)O)N1C(=O)/C(=C\C(Cl)=C/c2ccc([N+](=O)[O-])cc2)SC1=S (stereo not shown) [CBK261011]	92.1
CCC(c1ccccc1)N1CCN(Cc2noc(C)n2)CC1 (stereo not shown) [CBK305084]	90.3
CC(C)S(=O)(=O)N1CCC(n2c(=O)[nH]c3ccccc32)CC1 [CBK149693]	101

Compound	viability at 28.5 h, 10 µM [%]
O=C(c1ccc2nccnc2c1)N1CCN(c2ccccc2)CC1 [CBK200209]	92.9
Cc1nccn1CCC(=O)N1CCc2[nH]c3ccccc3c2C1 [CBK281882]	111
COc1ccc(S(=O)(=O)N2CCOCC2)cc1C(=O)N1CCCC(C)C1 (stereo not shown) [CBK305011]	110
C#CCNC(=O)CC[C@H]1CNC(=O)[C@@H]2[C@@H](CCN2Cc2ccc(O)cc2)N1C [CBK289017]	94
Cc1cc(F)c(S(N)(=O)=O)cc1NC(=O)c1ccc(C(F)(F)F)cc1 [CBK051448]	104
COC(=O)c1c(C)oc(C)c1S(=O)(=O)Nc1ccc(C(C)C)cc1 [CBK057115]	88
Cc1ccc(S(=O)(=O)NC[C@H]2O[C@@H](CC(=O)N3CCCC3)[C@H](O)[C@@H]2O)cc1 [CBK288910]	112
O=C(CCc1cc(F)ccc1F)NCCCn1nc2n(c1=O)CCCC2 [CBK305782]	97.7
CCC(NC(=O)C(C)n1cc(Cl)cn1)c1ccc(OC)cc1 (stereo not shown) [CBK282029]	95.3
Cc1ccc(Nc2nc(N/N=C/c3ccccc3)nc(N3CCC(Cc4ccccc4)CC3)n2)cc1 [CBK262296]	76.7
O=C(O)CCN1CCCC2(CCN(C(=O)c3ccoc3)C2)C1 (stereo not shown) [CBK137139]	93.4
CC(C)Nc1nc2ccccc2nc1OCc1ccsc1 [CBK115660]	104
O=C(NC1CCCCC1)c1s/c(=N/O)nnc1Nc1ccccc1 [CBK022275]	93.8
Cc1cnc(NC(=O)c2ncoc2-c2cccs2)s1 [CBK283977]	102
O=C1CC2(CCC3C(C(=O)N4CCCC4)C32)Oc2ccccc21 (stereo not shown) [CBK284969]	104
CCc1c(C)nc2c(C(=O)NCc3cc(C)on3)cnn2c1C [CBK162150]	82.5
O=C1NCC(C(=O)N2CCC3(CC2)CC(=O)c2cc(Br)ccc2O3)N1 (stereo not shown) [CBK156475]	87.7
O=C(O)c1cccc(Sc2cc(C(F)(F)F)ccn2)c1 [CBK093590]	88.7
Cc1ccc(Oc2cc(C)c([N+](=O)[O-])cn2)c(Br)c1 [CBK002823]	92.2
O=C(O)CSc1ccc(Br)c2cccc(C(=O)O)c12 [CBK126919]	99.2
COc1ccc(C(=O)NCC2(c3ccc(OC)c(OC)c3)CCCCC2)c(OC)c1 [CBK067049]	82.8

same assay, conditions: human, hela cells, % viability, bulk resorufin, single well

Compound	viability at 28.5 h, 10 µM [%]
CC(C)C(Nc1c([N+](=O)[O-])cc(C(F)(F)F)cc1[N+](=O)[O-])C(=O)O (stereo not shown) [CBK261041]	96.4
